Assay results: patent US20230174561A1, “IONIC COMPOUND AND COMPOSITION THEREOF FOR HYDROPHOBIC PROTEIN EXTRACTION; AND ANTI-NONSPECIFIC PROTEIN ADSORPTION ZWITTERIONIC COMPOUND AND ELEMENT WITH ANTI-NONSPECIFIC PROTEIN ADSORPTION LAYER COMPRISING THE SAME” (priority 2021, published 2023)
Like-named read-outs stand apart in the source and are kept apart here. One block for each compound: values may come before it.

How the values were obtained:
gliadin = test: Solubility of gliadin in ionic solutions (excess gliadin, Wheat/Gluten (Gliadin) ELISA Kit); assay type: physicochemical
Procedure: Gliadin is a hydrophobic protein present in gluten of wheat. Unless specifically stated, gliadin (G3375, Sigma-Aldrich; CAS No. 9007-90-3) or was used in the following tests.
First of all, ionic solutions of [DMePIm][OMs] with a concentration of 0.1 wt %, 1 wt %, 2 wt %, 5 wt % and 10 wt % in water were prepared. 3 grams (g) of gliadin (excess amount) was added into 10 mL of each [DMePIm][OMs] ionic solution, mixed homogenously and stood still for 5 min to give sample solutions for Test Example 1. All sample solutions were centrifuged at 8500 rpm for 3 min and filtered with a filter with 0.22 μm pore size. Water (0 wt %) was used as the control group. After that, Wheat/Gluten (Gliadin) ELISA Kit (Crystal chem, AOAC No. 011804) was used to determine the concentration and solubility of gliadin. Since the examination of the Wheat/Gluten (Gliadin) ELISA Kit is about 100 ppm, the gliadin concentration was determined by diluted sample solutions with at least 50-fold dilution by the corresponding ionic solution, in order to calculate the gliadin concentration of the sample solutions.
Similar with Test Example 1, except that 3 g of gliadin was added into 10 mL of 1 wt % ionic solution of [DMeIm][OMs](value “a” of Formula I is 0), [TMeIm][OMs] (a=1), [DMePrIm][OMs] (a=3), [DMePIm][OMs] (a=5), [DMeHpIm][OMs] (a=7), [DMeNnIm][OMs] (a=9) or [DMeDdIm][OMs] (a=12). […] (a=5), [DMeHpIm][OMs] (a=7), [DMeNnIm][OMs] ([…]) and [DMeDdIm][OMs] (a=12) ionic solutions, in which the corresponding groups attached on 3-position of the 1,2-dimethyl imidazolium had different carbon numbers (value “a” of Formula I) of 5, 7, 9 and 12, respectively. The [DMeDdIm][OMs]
Similar with Test Example 1, except that 3 g of gliadin was respectively added into 10 mL of 1 wt % ionic solutions of [DMePIm][Cl], [DMePIm][F], [DMePIm][OMs], [DMePIm][NO3], [DMePIm][H2PO4] and [DMePIm][HSO4].

[1] = tested on: Mouse N2a neuroblastoma cells (N2a cells); test: Biocompatibility, XTT cell survival test; assay type: cell-based; settings: 0.1, 1, 2, 5 and 10 wt % in medium, 6 h, FIG. 7
Procedure: Mouse N2a neuroblastoma cells (N2a cells) were cultured and maintained in DMEM High Glucose with L-glutamine and sodium pyruvate (DMEM-HPA-P10, Capricorn Scientific) containing 10% fetal bovine serum (FBS). The N2a cells were seeded in a 6-well plate with a density of 2×10^5 cells/well overnight. Then the medium was replaced with a testing DMEM High Glucose medium containing 0.1 wt %, 1 wt %, 2 wt %, 5 wt % and 10 wt % of [DMePIm][OMs] and the cells were incubated in an incubator (37° C., 5% CO2 humidified atmosphere) for 6 h. The testing medium was removed, the cells were washed, and new DMEM High Glucose containing 10% FBS was added and incubated for another 12 h. After that, the cells were subjected to XTT test (X12223, purchased from Thermo Fisher) for determining cell survival rate.

viscosity of ionic solution (gliadin; 1 wt % ionic solution): higher viscosity
Compound: CCCCCCCCCCCC[n+]1ccn(C)c1C.CS(=O)(=O)[O-] [[DMeDdIm][OMs], [1,2-dimethyl, 3-dodecyl imidazolium][methanesulfonyl]]

solubility of gliadin in ionic solutions with different cations (gliadin): higher solubility
Compound: CCCCCCC[n+]1ccn(C)c1C.CS(=O)(=O)[O-] [[DMeHpIm][OMs], [1,2-dimethyl, 3-heptyl imidazolium][methanesulfonyl]]

solubility of gliadin in ionic solutions with different cations (gliadin): higher solubility
Compound: CCCCCCCCC[n+]1ccn(C)c1C.CS(=O)(=O)[O-] [[DMeNnIm][OMs], [1,2-dimethyl, 3-nonyl imidazolium][methanesulfonyl]]

concentration of gliadin over time (gliadin; 1 wt % ionic solution, 1-30 min, FIG. 2): reached its maximum solubility shortly | solubility of gliadin in ionic solutions with different cations (gliadin; 1 wt % ionic solution, FIG. 3): higher solubility | solubility of gliadin in ionic solutions with different anions (gliadin; 1 wt % ionic solution, FIG. 4): greatest solubility
Compound: CCCCC[n+]1ccn(C)c1C [[DMePIm][OMs], [1,2-dimethyl, 3-pentyl imidazolium][methanesulfonyl]]
survival rates of cells [1]: high
